Experimental data from paper PMC6944208 (Journal of the American Chemical Society, 2019).

Target: T1, MePqqB (Methylobacterium extorquens PqqB, Me PqqB) (Methylorubrum extorquens, UniProt Q49149)
T1 sequence (Q49149 1-299): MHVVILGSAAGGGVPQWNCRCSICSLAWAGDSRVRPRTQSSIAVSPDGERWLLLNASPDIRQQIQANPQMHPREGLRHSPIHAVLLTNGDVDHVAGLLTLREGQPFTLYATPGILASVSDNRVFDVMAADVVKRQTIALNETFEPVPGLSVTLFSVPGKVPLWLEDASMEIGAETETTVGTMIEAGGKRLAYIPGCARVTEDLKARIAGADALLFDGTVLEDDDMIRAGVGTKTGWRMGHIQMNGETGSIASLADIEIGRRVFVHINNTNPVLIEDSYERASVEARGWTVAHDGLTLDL
Assay: isothermal titration calorimetry
Format: binding

N[C@@H](CSc1cc(C[C@H](N)C(=O)O)cc(O)c1O)C(=O)O [Cys-DOPA] was tested, and the Kd was about 200 nM.
